According to patent publication US3983125A, “Thieno-pyridine derivatives, process for their preparation and their applications” (Parcor, priority 1974, dated 1976):

Columns and labels:
[1] = Acute toxicity, LD50 intravenous route, Miller and Tainter method; conditions: mouse, in vivo, mice, per kg body weight
[2] = Acute toxicity, LD50 oral route; conditions: mouse, in vivo, per kg body weight
Protocol: By the oral route, the LD50 /24 hrs/kg body weight is in excess of 300 mg with derivatives n°1 and n°2.

[3] = Carrageenin-induced localized edema method; type: in vivo; conditions: rat, 100 mg/kg orally per administration; for Percent anti-inflammatory activity after 1 hour: 1 hour after carrageenin; for Percent anti-inflammatory activity after 2 hours: 2 hours after carrageenin; for Percent anti-inflammatory activity after 5 hours: 5 hours after carrageenin
Protocol: a. Carrageenin-induced localized edema method
A 1% carrageenin solution (0.1 ml) is injected in the metatarsal flexor muscles of the right posterior limb of a rat at time 0 (zero). The animals of the treated lot are additionally given orally 100 mg/kg of the respective test derivatives, one hour prior to and then simultaneously with the injection of the phlogogenic agent, and then one hour and 2.5 hours thereafter. The determinations effected by means of a ROCH micrometer at times 0, 1 hour, 2 hours, 3 hours and 5 hours after carrageenin administration, provide a measure of the percent anti-inflammatory activity, as a function of time.

[4] = Ovalbumin-induced systemic edema method; type: in vivo; conditions: rat, 100 mg/kg orally, one hour prior to and simultaneously with ovalbumin; for Percent decrease (edematous reaction) after two hours: 2 hours; for Percent decrease (edematous reaction) after three hours: 3 hours
Protocol: b. Ovalbumin-induced systemic edema method
Rats are administered a simultaneous intraperitoneal injection of 1 ml ovalbumin and 0.5 ml of a 1% aqueous Evans Blue solution. On the other hand, the animals of the treated lot are administered orally 100 mg/kg of the test derivative, one hour prior to and simultaneously with the ovalbumin administration. The determinations are effected after 2 hours and after 3 hours. Thus are determined the average intensity of the edema and the percent decrease of the edematous reaction with respect to the controls.

[5] = Acetic acid method (writhing), according to Koster, Anderson and de Beer; type: in vivo; conditions: mice, 100 mg/kg orally, 30 minutes prior to acetic acid i.p.; writhing within following 30 minutes
Excerpt: a. Acetic acid method, according to Koster, Anderson and de Beer (Fed. Proced., 18, 1959, 412, 1, 626).
Intraperitoneal injection of a dilute acetic acid solution produces, in mice, characteristic repeated writhing movements, under the influence of pain.

[6] = Mechanical stimulation method according to Haffner; type: in vivo; conditions: mouse, 100 mg/kg orally
Protocol: b. Mechanical stimulation method according to Haffner (Deutsch. Wisch., 1959, 55, 731-733)
This method comprises placing a forcipressure forceps at the base of the tail of a mouse and noting the number of self-inflicted bites due to the animal's efforts to remove the forceps. The decrease of the number of bites prior to and after oral administration of the test derivative, at a dosage of 100 mg/kg, provides a measure of the antalgic activity of the derivatives of this invention.

| SMILES | LD50 at 24 h [1] [mg/kg] | LD50 at 24 h [2] [mg/kg] | Percent anti-inflammatory activity after 1 hour [3] [%] | Percent anti-inflammatory activity after 2 hours [3] [%] | Percent anti-inflammatory activity after 5 hours [3] [%] | Percent decrease (edematous reaction) after two hours [4] [%] | Percent decrease (edematous reaction) after three hours [4] [%] | Percent antalgic activity [5] [%] | Average percent antalgic activity after 30 min. [6] [%] | Average percent antalgic activity after 1 hr [6] [%] | Average percent antalgic activity after 2 hrs [6] [%] | Average percent antalgic activity after 3 hrs [6] [%] |
| --- | --- | --- | --- | --- | --- | --- | --- | --- | --- | --- | --- | --- |
| OC1CNCc2ccsc21 (centres unmarked) [Derivative 1, 7-hydroxy-4,5,6,7-tetrahydro-thieno[3,2-c]pyridine] | 75 | > 300 | 41 | 48 | 53 | 54 | 58 | 63 | 72 | 68 | 62 | 55 |
| OC1CNCc2sccc21 (centres unmarked) [Derivative 2, 4-hydroxy-4,5,6,7-tetrahydro-thieno[2,3-c]pyridine] | 68 | > 300 | 43 | 54 | 58 | 56 | 65 | 66 | 76 | 69 | 60 | 54 |
| CC1NCC(O)c2ccsc21 (centres unmarked) [Derivative 3, 4-hydroxy-7-methyl-4,5,6,7-tetrahydro-thieno[2,3-c]pyridine] | 300 | – | 38 | 47 | 56 | 45 | 56 | 55 | 68 | 62 | 58 | 50 |
| CCC1NCC(O)c2ccsc21 (centres unmarked) [Derivative 4, 7-ethyl-4-hydroxy-4,5,6,7-tetrahydro-thieno[2,3-c]pyridine] | 285 | – | 43 | 51 | 59 | 54 | 62 | 61 | 74 | 65 | 60 | 52 |
| CC1NCC(O)c2sccc21 (centres unmarked) [Derivative 5, 7-hydroxy-4-methyl-4,5,6,7-tetrahydro-thieno[3,2-c]pyridine] | 155 | – | 41 | 55 | 60 | 52 | 64 | 59 | 76 | 64 | 61 | 52 |
| CCC1NCC(O)c2sccc21 (centres unmarked) [Derivative 6, 4-ethyl-7-hydroxy-4,5,6,7-tetrahydro-thieno[3,2-c]pyridine] | 210 | – | 39 | 51 | 57 | 49 | 64 | 58 | 71 | 67 | 63 | 58 |
